Data from ChEMBL document CHEMBL1765075, “Discovery and structure-activity relationship of 3-aminopyrid-2-ones as potent and selective interleukin-2 inducible T-cell kinase (Itk) inhibitors” (J Med Chem, 2011).
Converted amounts (≈) assume the structure as drawn.

Columns and labels:
[1] = target: MAP kinase-activated protein kinase 5 (Homo sapiens, UniProt Q8IW41); test: Inhibition of PRAK
[2] = target: T1, Serine/threonine-protein kinase Chk1 (Homo sapiens, UniProt O14757); test: Inhibition of CHK1
T1 sequence (O14757 whole entry): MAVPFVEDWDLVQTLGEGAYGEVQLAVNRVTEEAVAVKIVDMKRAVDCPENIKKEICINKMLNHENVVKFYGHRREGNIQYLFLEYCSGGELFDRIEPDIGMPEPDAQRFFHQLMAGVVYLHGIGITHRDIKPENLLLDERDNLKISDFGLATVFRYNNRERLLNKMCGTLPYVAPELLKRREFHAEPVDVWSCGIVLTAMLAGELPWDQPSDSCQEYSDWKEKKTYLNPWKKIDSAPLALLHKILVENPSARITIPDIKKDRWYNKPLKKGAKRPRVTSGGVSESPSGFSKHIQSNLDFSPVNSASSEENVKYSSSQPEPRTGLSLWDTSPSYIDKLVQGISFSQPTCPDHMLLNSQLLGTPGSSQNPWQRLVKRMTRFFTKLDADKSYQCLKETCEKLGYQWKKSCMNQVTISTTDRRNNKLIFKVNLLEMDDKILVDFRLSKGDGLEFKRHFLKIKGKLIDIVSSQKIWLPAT

[3] = target: Mitogen-activated protein kinase kinase kinase 8 (Homo sapiens, UniProt P41279); test: Inhibition of COT
[4] = target: Cyclin-dependent kinase 1 (Homo sapiens, UniProt P06493); test: Inhibition of CDK1
Sequence of Cyclin-dependent kinase 1 (P06493 whole entry): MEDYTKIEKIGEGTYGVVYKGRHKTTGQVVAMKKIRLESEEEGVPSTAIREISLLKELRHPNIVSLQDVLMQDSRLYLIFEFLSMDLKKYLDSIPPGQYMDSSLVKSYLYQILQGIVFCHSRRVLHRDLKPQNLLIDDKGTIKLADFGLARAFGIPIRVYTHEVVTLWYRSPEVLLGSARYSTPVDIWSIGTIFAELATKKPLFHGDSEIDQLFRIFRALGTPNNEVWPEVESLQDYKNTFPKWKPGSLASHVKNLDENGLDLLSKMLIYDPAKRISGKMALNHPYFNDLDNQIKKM

[5] = target: Receptor tyrosine-protein kinase erbB-4 (Homo sapiens, UniProt Q15303); test: Inhibition of ERBB4
Sequence of Receptor tyrosine-protein kinase erbB-4 (Q15303 whole entry): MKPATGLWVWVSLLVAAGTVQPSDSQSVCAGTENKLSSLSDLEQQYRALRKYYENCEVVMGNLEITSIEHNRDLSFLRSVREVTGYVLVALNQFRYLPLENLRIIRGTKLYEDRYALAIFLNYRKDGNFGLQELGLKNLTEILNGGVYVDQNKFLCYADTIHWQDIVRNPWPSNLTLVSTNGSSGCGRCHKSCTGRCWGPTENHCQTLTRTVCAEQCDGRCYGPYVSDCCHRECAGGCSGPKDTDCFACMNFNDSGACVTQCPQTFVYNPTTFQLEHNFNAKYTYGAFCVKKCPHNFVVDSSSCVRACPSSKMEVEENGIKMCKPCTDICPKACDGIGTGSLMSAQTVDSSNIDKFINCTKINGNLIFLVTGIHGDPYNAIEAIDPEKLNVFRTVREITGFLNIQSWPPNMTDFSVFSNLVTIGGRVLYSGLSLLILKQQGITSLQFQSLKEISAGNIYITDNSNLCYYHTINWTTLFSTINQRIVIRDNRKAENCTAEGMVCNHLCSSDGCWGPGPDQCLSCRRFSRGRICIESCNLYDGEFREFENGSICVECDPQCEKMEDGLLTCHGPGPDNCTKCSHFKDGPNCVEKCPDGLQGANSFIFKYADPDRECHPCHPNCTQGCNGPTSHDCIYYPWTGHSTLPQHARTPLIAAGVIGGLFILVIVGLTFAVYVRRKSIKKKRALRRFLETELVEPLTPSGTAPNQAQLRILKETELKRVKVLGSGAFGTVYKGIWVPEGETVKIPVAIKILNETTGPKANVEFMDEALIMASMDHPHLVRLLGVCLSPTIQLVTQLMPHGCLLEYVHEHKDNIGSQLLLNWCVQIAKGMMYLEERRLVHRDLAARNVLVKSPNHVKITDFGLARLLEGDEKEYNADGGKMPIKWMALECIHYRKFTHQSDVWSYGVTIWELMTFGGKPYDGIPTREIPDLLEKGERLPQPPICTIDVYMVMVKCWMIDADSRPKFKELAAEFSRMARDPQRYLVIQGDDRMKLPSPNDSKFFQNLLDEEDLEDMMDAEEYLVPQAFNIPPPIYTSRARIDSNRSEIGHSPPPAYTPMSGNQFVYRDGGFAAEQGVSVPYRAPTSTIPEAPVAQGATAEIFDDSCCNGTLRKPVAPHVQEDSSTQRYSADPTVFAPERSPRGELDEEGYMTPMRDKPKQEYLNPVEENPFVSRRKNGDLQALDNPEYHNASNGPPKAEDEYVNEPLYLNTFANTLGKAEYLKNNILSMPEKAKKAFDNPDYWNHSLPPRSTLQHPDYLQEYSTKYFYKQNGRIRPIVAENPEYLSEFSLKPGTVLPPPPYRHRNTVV

[6] = target: Tyrosine-protein kinase JAK2 (Homo sapiens, UniProt O60674); test: Inhibition of JAK2
[7] = target: Serine/threonine-protein kinase N2 (Homo sapiens, UniProt Q16513); test: Inhibition of PRK2
[8] = Solubility of the compound in phosphate buffer at pH 7.4 by high throughput shake flask assay; type: physicochemical
[9] = target: Macrophage-stimulating protein receptor (Homo sapiens, UniProt Q04912); test: Inhibition of RON
[10] = target: Cytoplasmic tyrosine-protein kinase BMX (Homo sapiens, UniProt P51813); test: Inhibition of BMX
Sequence of Cytoplasmic tyrosine-protein kinase BMX (P51813 whole entry): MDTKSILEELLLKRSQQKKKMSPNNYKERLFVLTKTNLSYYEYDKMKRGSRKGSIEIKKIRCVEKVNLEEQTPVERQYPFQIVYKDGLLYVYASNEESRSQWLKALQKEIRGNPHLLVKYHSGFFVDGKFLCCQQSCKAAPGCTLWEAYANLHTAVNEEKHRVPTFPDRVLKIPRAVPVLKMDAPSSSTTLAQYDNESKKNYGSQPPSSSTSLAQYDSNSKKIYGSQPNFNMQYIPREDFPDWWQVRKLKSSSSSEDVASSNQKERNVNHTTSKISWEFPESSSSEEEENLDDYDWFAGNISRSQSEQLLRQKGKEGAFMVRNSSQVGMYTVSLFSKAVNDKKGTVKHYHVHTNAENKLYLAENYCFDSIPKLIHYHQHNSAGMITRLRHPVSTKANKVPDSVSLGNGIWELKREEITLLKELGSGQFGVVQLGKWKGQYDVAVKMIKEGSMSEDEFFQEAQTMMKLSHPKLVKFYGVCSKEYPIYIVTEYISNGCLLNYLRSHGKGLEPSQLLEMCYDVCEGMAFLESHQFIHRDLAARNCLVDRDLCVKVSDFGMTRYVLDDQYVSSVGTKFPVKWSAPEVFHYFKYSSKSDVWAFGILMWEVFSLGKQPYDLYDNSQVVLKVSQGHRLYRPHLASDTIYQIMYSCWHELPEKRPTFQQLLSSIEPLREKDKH

[11] = target: Mitogen-activated protein kinase 1 (Homo sapiens, UniProt P28482); test: Inhibition of ERK2
[12] = target: T2, Proto-oncogene tyrosine-protein kinase Src (Homo sapiens, UniProt P12931); test: Inhibition of SRC
T2 sequence (P12931 2-536 limits assumed): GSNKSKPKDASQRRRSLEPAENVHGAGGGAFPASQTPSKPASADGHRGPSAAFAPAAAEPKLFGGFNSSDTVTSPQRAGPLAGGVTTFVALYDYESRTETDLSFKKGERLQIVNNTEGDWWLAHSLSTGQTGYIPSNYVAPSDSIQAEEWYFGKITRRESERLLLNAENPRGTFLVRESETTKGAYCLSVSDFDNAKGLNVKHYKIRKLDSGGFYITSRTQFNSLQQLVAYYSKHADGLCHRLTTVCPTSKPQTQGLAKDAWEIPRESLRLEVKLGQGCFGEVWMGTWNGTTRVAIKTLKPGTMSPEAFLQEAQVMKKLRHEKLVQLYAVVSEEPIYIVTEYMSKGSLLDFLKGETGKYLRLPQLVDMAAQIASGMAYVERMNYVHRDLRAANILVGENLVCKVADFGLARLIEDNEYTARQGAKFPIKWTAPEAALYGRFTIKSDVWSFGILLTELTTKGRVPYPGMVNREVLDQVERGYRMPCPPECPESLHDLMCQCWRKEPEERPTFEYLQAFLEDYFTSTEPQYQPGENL

[13] = Inhibition of AMPK
[14] = target: Tyrosine-protein kinase ZAP-70 (Homo sapiens, UniProt P43403); test: Inhibition of ZAP70
Sequence of Tyrosine-protein kinase ZAP-70 (P43403 whole entry): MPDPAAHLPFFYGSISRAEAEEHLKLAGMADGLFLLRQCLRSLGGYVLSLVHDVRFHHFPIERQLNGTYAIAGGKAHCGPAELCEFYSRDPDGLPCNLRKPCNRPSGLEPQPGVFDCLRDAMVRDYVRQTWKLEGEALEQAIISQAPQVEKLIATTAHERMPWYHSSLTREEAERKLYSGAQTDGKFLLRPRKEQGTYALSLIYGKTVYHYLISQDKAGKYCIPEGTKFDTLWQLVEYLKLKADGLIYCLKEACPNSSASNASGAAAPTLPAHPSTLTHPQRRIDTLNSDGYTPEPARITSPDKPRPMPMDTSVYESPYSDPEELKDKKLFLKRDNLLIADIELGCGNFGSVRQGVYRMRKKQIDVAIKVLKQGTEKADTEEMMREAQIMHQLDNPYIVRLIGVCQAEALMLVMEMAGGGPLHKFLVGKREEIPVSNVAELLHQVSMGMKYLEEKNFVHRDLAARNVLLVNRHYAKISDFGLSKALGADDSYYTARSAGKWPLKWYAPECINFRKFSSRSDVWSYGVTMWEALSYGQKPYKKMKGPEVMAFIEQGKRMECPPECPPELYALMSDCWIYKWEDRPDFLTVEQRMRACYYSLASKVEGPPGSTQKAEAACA

[15] = target: Tyrosine-protein kinase BTK (Homo sapiens, UniProt Q06187); test: Inhibition of BTK
[16] = target: Protein kinase C theta type (Homo sapiens, UniProt Q04759); test: Inhibition of PKCtheta
[17] = target: Ribosomal protein S6 kinase alpha-1 (Homo sapiens, UniProt Q15418); test: Inhibition of RSK1
[18] = target: Serine/threonine-protein kinase TBK1 (Homo sapiens, UniProt Q9UHD2); test: Inhibition of TBK1
[19] = target: Tyrosine-protein kinase JAK3 (Homo sapiens, UniProt P52333); test: Inhibition of JAK3
[20] = target: Dual specificity tyrosine-phosphorylation-regulated kinase 1A (Homo sapiens, UniProt Q13627); test: Inhibition of DYRK1A
[21] = target: Macrophage colony-stimulating factor 1 receptor (Homo sapiens, UniProt P07333); test: Inhibition of FMS
[22] = Inhibition of CK1
[23] = target: Platelet-derived growth factor receptor alpha (Homo sapiens, UniProt P16234); test: Inhibition of PDGFRalpha
[24] = target: Tyrosine-protein kinase Lyn (Homo sapiens, UniProt P07948); test: Inhibition of LYNA
[25] = target: RAC-alpha serine/threonine-protein kinase (Homo sapiens, UniProt P31749); test: Inhibition of AKT1
[26] = target: Tyrosine-protein kinase Fes/Fps (Homo sapiens, UniProt P07332); test: Inhibition of FES
Sequence of Tyrosine-protein kinase Fes/Fps (P07332 whole entry): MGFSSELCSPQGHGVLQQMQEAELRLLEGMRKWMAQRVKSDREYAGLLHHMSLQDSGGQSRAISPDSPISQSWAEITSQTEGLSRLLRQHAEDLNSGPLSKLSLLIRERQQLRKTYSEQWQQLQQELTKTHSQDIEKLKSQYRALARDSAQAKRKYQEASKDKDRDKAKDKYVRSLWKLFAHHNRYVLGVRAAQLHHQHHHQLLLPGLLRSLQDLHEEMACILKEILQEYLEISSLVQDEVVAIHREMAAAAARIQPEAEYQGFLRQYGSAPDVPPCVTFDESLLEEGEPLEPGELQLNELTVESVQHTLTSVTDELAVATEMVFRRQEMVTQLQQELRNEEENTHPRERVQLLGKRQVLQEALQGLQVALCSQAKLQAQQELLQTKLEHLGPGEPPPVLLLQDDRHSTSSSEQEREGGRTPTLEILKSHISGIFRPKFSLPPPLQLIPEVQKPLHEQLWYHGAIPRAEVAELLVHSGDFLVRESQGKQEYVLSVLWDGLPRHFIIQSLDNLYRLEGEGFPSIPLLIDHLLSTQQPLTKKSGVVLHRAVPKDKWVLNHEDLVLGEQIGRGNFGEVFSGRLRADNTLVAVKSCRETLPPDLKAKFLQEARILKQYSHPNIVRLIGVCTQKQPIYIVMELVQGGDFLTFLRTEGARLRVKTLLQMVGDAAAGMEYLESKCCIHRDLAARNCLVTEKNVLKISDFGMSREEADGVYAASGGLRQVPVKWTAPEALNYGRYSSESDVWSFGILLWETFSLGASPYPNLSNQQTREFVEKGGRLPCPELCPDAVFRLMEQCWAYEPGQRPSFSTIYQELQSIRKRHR

[27] = target: T1, Serine/threonine-protein kinase Chk1; test: Inhibition of CHEK1
[28] = target: Tyrosine-protein kinase CSK (Homo sapiens, UniProt P41240); test: Inhibition of CSK
[29] = target: Protein kinase C beta type (Homo sapiens, UniProt P05771); test: Inhibition of PKCbeta
[30] = target: Mitogen-activated protein kinase 8 (Homo sapiens, UniProt P45983); test: Inhibition of JNK1
Insulin receptor = Insulin receptor (Homo sapiens, UniProt P06213); test: Inhibition of IR
[31] = target: Interleukin-1 receptor-associated kinase 4 (Homo sapiens, UniProt Q9NWZ3); test: Inhibition of IRAK4
[32] = target: Ribosomal protein S6 kinase beta-1 (Homo sapiens, UniProt P23443); test: Inhibition of P70S6K1
[33] = target: Inhibitor of nuclear factor kappa-B kinase subunit alpha (Homo sapiens, UniProt O15111); test: Inhibition of IKKalpha
[34] = target: Proto-oncogene tyrosine-protein kinase receptor Ret (Homo sapiens, UniProt P07949); test: Inhibition of RET
[35] = target: Serine/threonine-protein kinase 3 (Homo sapiens, UniProt Q13188); test: Inhibition of MST2
[36] = target: Mast/stem cell growth factor receptor Kit (Homo sapiens, UniProt P10721); test: Inhibition of c-Kit after 45 mins by radiometric phosphate incorporation assay
[37] = target: Dual specificity mitogen-activated protein kinase kinase 6 (Homo sapiens, UniProt P52564); test: Inhibition of MKK6
Angiopoietin-1 receptor = Angiopoietin-1 receptor (Homo sapiens, UniProt Q02763); test: Inhibition of TIE2
[38] = target: Serine/threonine-protein kinase PLK3 (Homo sapiens, UniProt Q9H4B4); test: Inhibition of PLK3
[39] = target: Serine/threonine-protein kinase Nek1 (Homo sapiens, UniProt Q96PY6); test: Inhibition of NEK1
[40] = target: T2, Proto-oncogene tyrosine-protein kinase Src; test: Inhibition of Src after 10 mins by radiometric phosphate incorporation assay
[41] = target: Glycogen synthase kinase-3 beta (Homo sapiens, UniProt P49841); test: Inhibition of GSK3-beta
[42] = target: Death-associated protein kinase 3 (Homo sapiens, UniProt O43293); test: Inhibition of ZIPK
[43] = target: Tyrosine-protein kinase ABL1 (Homo sapiens, UniProt P00519); test: Inhibition of ABL
Ephrin type-B receptor 2 = Ephrin type-B receptor 2 (Homo sapiens, UniProt P29323); test: Inhibition of EPHB2
[44] = target: Insulin-like growth factor 1 receptor (Homo sapiens, UniProt P08069); test: Inhibition of IGF1R
[45] = target: Rho-associated protein kinase 2 (Homo sapiens, UniProt O75116); test: Inhibition of ROCK2
[46] = target: Mitogen-activated protein kinase kinase kinase 7 (Homo sapiens, UniProt O43318); test: Inhibition of TAK1

Ki [1]: > 1000 nM
Ki [2]: > 1000 nM
Ki [3]: > 1000 nM
Ki [4]: > 1000 nM
Ki [5]: > 1000 nM
Ki [6]: 370 nM
Ki [7]: > 1000 nM
solubility thermodynamic [8]: 150 µg/mL (≈ 317 µM)
Ki [9]: > 1000 nM
Ki [10]: > 1000 nM
Ki [11]: > 2000 nM
Ki [12]: 120 nM
Ki [13]: > 1000 nM
Ki [14]: > 2000 nM
Ki [15]: > 1000 nM
Ki [16]: > 2000 nM
Ki [17]: > 1000 nM
Ki [18]: > 1000 nM
Ki [19]: 350 nM
Ki [20]: > 1000 nM
Ki [21]: > 1000 nM
Ki [22]: > 1000 nM
Ki [23]: > 1000 nM
Ki [24]: > 1000 nM
Ki [25]: > 1000 nM
Ki [26]: > 1000 nM
Ki [27]: > 1000 nM
Ki [28]: > 1000 nM
Ki [29]: > 1000 nM
Ki [30]: > 1000 nM
Ki (Insulin receptor): > 1000 nM
Ki [31]: > 1000 nM
Ki [32]: > 1000 nM
Ki [33]: > 1000 nM
Ki [34]: > 1000 nM
Ki [35]: > 1000 nM
Ki [36]: 200 nM
Ki [37]: > 1000 nM
Ki (Angiopoietin-1 receptor): > 1000 nM
Ki [38]: > 1000 nM
Ki [39]: > 1000 nM
Ki [40]: 120 nM
Ki [41]: > 1000 nM
Ki [43]: > 1000 nM
Ki (Ephrin type-B receptor 2): > 1000 nM
Ki [44]: > 1000 nM
Ki [45]: > 1000 nM
Ki [46]: 860 nM
SMILES: CNc1cncc(-c2c[nH]c(=O)c(NC(=O)c3ccc(N4CCC[C@H]4CN4CCCC4)cc3)c2)n1
Ki [42]: > 1000 nM
